Laboratory results: patent US7820648B2, “Pyrimidine derivatives for the treatment of abnormal cell growth” (Pfizer Inc, priority 2005, dated 2010)

melting point: 108 to 112 °C
SMILES: CC(=O)N1[C@@H]2CC[C@H]1c1ccc(Nc3ncc(C)c(NC4CC4)n3)cc12
